According to patent US20220040236A1, “COMPOSITIONS AND METHODS OF TREATMENT OF VISION LOSS THROUGH GENERATION OF ROD PHOTORECEPTORS FROM MÜLLER GLIAL CELLS” (ICAHN SCHOOL OF MEDICINE AT MOUNT SINAI, priority 2018, published 2022):

Key:
Assay type in all cases: in vivo, mouse
Wnt signaling pathway = assay: quantitative PCR of Wnt genes, Wnt antagonists and Wnt target genes after NMDA injury
Protocol: Total RNA was extracted from retinas using TRIzol (Invitrogen, Grand Island, N.Y.) according to the manufacture's protocol. Reverse transcription (RT) was then performed at 42° C. for 2 hours in a volume of 20 μl containing 0.5 μg of oligo(dT), 1×RT buffer, 0.5 mM each deoxyribonucleotide triphosphate, 0.1 mM dithiothreitol, and 200 U of Superscript II reverse transcriptase (Invitrogen, Grand Island, N.Y.). Real-Time quantitative PCR (qPCR) was performed in triplicate with SsoFast™ EvaGreen supermix (Bio-Rad, Hercules, Calif.) using an iCycler real-time PCR detection system (Bio-Rad, Hercules, Calif.). The amplification protocol was 30 seconds at 94° C., 30 seconds at 56° C., and 30 seconds at 72° C., with a signal detection period of 7 seconds at 80° C. A melt curve analysis was performed at the end of the reaction to check the reaction specificity. Results were obtained after normalization to the expression level of the housekeeping gene, B-actin. All experiments were performed at least twice to ensure repeatable results.
To examine whether Wnt signaling is activated by NMDA-induced neurotoxic injury, quantitative PCR was performed to assay the RNA levels of Wnt genes at 3, 6, 12, 18, 24, 36, and 48 hours post-NMDA injection, relative to the PBS injected retina as a control. […] The upregulation of Wnt genes and a concomitant downregulation of WIF-1 and Dkk1 would predict activation of the canonical Wnt/β-catenin signaling pathway. Indeed, 24 hours post-NMDA injection, a 3.4-fold upregulation of CyclinD1 (Ccnd1, FIG. 2D), a target gene of the Wnt signaling pathway (Shtutman et al., Proc Natl Acad Sci USA, 1999, 96:5522-5527; Tetsu and McCormick, Nature, 1999, 398:422-426) and key regulator of the cell cycle progression from the G1 to S phase (Resnitzky et al., Mol Cell Biol. 1994, 14:1669-1679), was detected.

Müller glial cells (MGs) = assay: NMDA-induced MG proliferation, EdU incorporation in retinal flatmount preparations
Protocol: (§1) Adult mice at 4 weeks of age were anesthetized with an intraperitoneal injection of ketamine (50 mg/kg mouse body weight) and xylazine (5 mg/kg mouse body weight). Intravitreal injection was performed using a microsyringe equipped with a 33 gauge needle. The tip of the needle was passed through the sclera, at the equator and next to the dorsal limbus of the eye, into the vitreous cavity. Injection volume is 1 μl per eye for AAVs or other chemicals including NMDA (Acros Organics, 100 mM) and XAV939 (Sigma, 10 μM).
EdU solution (1 ul) was intravitreally injected into the vitreous chamber at the concentration of 1 mg/ml. Analysis of EdU incorporation was performed using Click-iT EdU Kit (Invitrogen, Grand Island, N.Y.). In brief, retinal cryostat sections or flatmount preparations were washed in PBS first for 10 min and then washed twice in PBS containing 3% BSA, followed by permeabilization in PBS containing 0.5% Triton X-100 for 20 min. After washing twice in PBS containing 3% BSA, EdU detection components were resuspended according to manufacturer's instructions and applied directly to retinal samples. The solution for each EdU reaction has a total volume of 250 μl composed of 215 μl 1× Click-iT reaction buffer, 10 μl CuSO4, 0.6 μl Alexa Fluor azide, and 25 μl 1× Reaction buffer additive. After incubation in the reaction solution for 30 minutes at room temperature, samples were washed with PBS and mounted with Fluoromount-G for detection.
To examine MG proliferation induced by neurotoxic injury in the adult mammalian retina, 200 nmol was injected NMDA into the vitreous chamber of the mouse retina at 4 weeks of age. The same dosage of NMDA was previously used to introduce retinal injury leading to MG proliferation in adult rat and mouse retina (Karl et al., Proc Natl Acad Sci USA, 2008, 105:19508-19513; Ooto et al., Proc Natl Acad Sci USA, 2004, 101:13654-13659). Anti-HuC/D immunohistochemistry was used to assay the time course of NMDA-induced cell death in the ganglion cell layer (GCL). […] To assay cell proliferation, 1 μl of 1 mg/ml of EdU, a nucleoside analog of thymidine that is incorporated into DNA during active DNA synthesis, was injected into the vitreous chamber 5 hours before tissue collection at 24, 36, 48, 60, 72, and 96 hours post-NMDA injection. NMDA-induced cell proliferation was quantified by scoring the number of EdU^+ cells/mm^2 in retinal flatmount preparations. A small number (4.7±0.8) of EdU^−1 cells appeared 36 hours post-NMDA injection. The number of EdU^−1 cells continued to increase, reaching 223.3±8.3 and 264.5±8.4 at 48 and 60 hours, respectively, before it was reduced to 5.8±1.1 at 72 hours post-NMDA injection (FIG. 2A). The EdU^−1 cells were also immunoreactive for CyclinD3 and p27^kip1 (FIG. 2B), MG-specific nuclear antigens (Dyer and Cepko, Nat Neurosci. 2000, 3:873-880).
To examine the ability of inhibition of Wnt signaling to suppress NMDA-induced MG proliferation, NMDA was co-injected with XAV939, a selective Wnt signaling antagonist (Huang et al., Nature, 2009, 461:614-620), and the number of EdU^+ cells per mm^2 in retinal flatmount preparations was quantified 60 hours post-injection, when the maximum number of EdU^+ cells were detected (FIG. 2A). […] To assay whether XAV939 treatment affects NMDA-induced retinal damage, the number of HuC/D+ cells was quantified in the GCL at 60 hours post-injection.
Lin28 is a direct transcriptional target of Wnt/β-catenin signaling. […]

[1] = system: retinal ganglion cells and amacrine cells; assay: NMDA-induced cell death, anti-HuC/D immunohistochemistry in the ganglion cell layer; details: 36 hours post-NMDA injection, 200 nmol NMDA intravitreal
Protocol: as §1
Retinas were fixed with 4% paraformaldehyde in PBS for 30 minutes at room temperature, followed by overnight incubation at 4° C. in PBS containing 30% sucrose. […]
To examine MG proliferation induced by neurotoxic injury in the adult mammalian retina, 200 nmol was injected NMDA into the vitreous chamber of the mouse retina at 4 weeks of age. […] NMDA-induced cell proliferation was quantified by scoring the number of EdU^+ cells/mm^2 in retinal flatmount preparations. […]
To examine the ability of inhibition of Wnt signaling to suppress NMDA-induced MG proliferation, NMDA was co-injected with XAV939, a selective Wnt signaling antagonist (Huang et al., Nature, 2009, 461:614-620), and the number of EdU^+ cells per mm^2 in retinal flatmount preparations was quantified 60 hours post-injection, when the maximum number of EdU^+ cells were detected (FIG. 2A). […]

Row | SMILES | RNA levels for Wnt genes (Wnt2b, Wnt8a, Wnt8b, Wnt9a, Wnt10a), upregulation (Wnt signaling pathway; 6-24 hours post-NMDA injection, relative to PBS injected retina) | RNA levels for WIF-1 (Wnt signaling pathway; 12 hours post-NMDA injection) | RNA levels for Dkk1 (Wnt signaling pathway; 24 hours post-NMDA injection) | upregulation of CyclinD1 (Ccnd1) (Wnt signaling pathway; 24 hours post-NMDA injection) | RNA levels of Lef1 and Axin2 (Wnt signaling pathway; post-NMDA injection) | number of EdU+ cells/mm^2 (Müller glial cells (MGs); 36 hours post-NMDA injection) | number of EdU+ cells/mm^2 (Müller glial cells (MGs); 48 hours post-NMDA injection) | number of EdU+ cells/mm^2 (Müller glial cells (MGs); 60 hours post-NMDA injection) | number of EdU+ cells/mm^2 (Müller glial cells (MGs); 72 hours post-NMDA injection) | HuC/D+ cells remaining [1] | number of EdU+ cells per mm^2 versus NMDA injection alone (Müller glial cells (MGs); XAV939 co-injected with NMDA, 60 hours post-injection)
1 | CN[C@H](CC(=O)O)C(=O)O [NMDA] | at least 3 fold | 1.6±0.2 % of the control | 13.2±0.6 % of the control | 3.4 fold | significant upregulation | 4.7±0.8 cells/mm^2 | 223.3±8.3 cells/mm^2 | 264.5±8.4 cells/mm^2 | 5.8±1.1 cells/mm^2 | ~45% | –
2 | Oc1nc(-c2ccc(C(F)(F)F)cc2)nc2c1CSCC2 [XAV939] | – | – | – | – | – | – | – | – | – | – | significantly reduced
